The record followed here is PubChem BioAssay (NCI).

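Five compound concentrations were applied to cells in 96-well plates for 48 hours; endpoints were derived by simple linear interpolation of the resulting dose-response curve. TGI marks complete inhibition of growth.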

Some test systems named below: 786-0 renal; A498 renal; A549 NSCLC; COLO 205 colon; HCT-116 colon; HS 578T breast; HT29 colon; MDA-MB-231 breast; MDA-MB-435; NCI-H460 lung; NCI-H522 lung; NCI/ADR-RES ovarian; OVCAR-5 ovarian; RPMI-8226 leukemia; SF-539 CNS; SN12C renal; T-47D breast; HOP-62 NSCLC; MALME-3M melanoma; OVCAR-3 ovarian.
Holding throughout (assay): growth of human tumour cells (NCI), 48 h

For the molecule `Nc1cc(OCc2ccccc2)c(OCc2ccccc2)cc1C=O`, the TGI was 55.4 µM with 786-0 renal; 44.2 µM in the experiment with A498 renal; greater than 100 µM in the experiment with A549 NSCLC; 77.3 µM in the experiment with COLO 205 colon; 96.8 µM in the experiment with HCT-116 colon; greater than 100 µM with HS 578T breast. Besides, the TGI in the experiment on HT29 colon was greater than 100 µM; in the experiment with MDA-MB-231 breast, greater than 100 µM; with MDA-MB-435, greater than 100 µM; in the experiment on NCI-H460 lung, 52.8 µM; in the experiment on NCI-H522 lung, 24.5 µM; in the experiment with NCI/ADR-RES ovarian, greater than 100 µM. Moreover, the TGI was greater than 100 µM in the experiment on OVCAR-5 ovarian; greater than 100 µM in the experiment with RPMI-8226 leukemia; 31.7 µM with SF-539 CNS; greater than 100 µM with SN12C renal; greater than 100 µM with T-47D breast.
As for `Fc1ccc(C2(CCCN3CCc4[nH]c5cc(F)ccc5c4C3)OCCO2)cc1`, the TGI is 27.1 µM in the experiment with 786-0 renal; 28.9 µM in the experiment on A498 renal; 29 µM with A549 NSCLC; 24.1 µM in the experiment with COLO 205 colon; 24 µM in the experiment with HCT-116 colon; 25.7 µM in the experiment on HOP-62 NSCLC. Further, the TGI in the experiment with HS 578T breast stood at 17.4 µM; with HT29 colon, 15 µM; in the experiment with MALME-3M melanoma it was 25.9 µM; in the experiment with MDA-MB-231 breast, 35 µM; with MDA-MB-435 it was 26.5 µM; in the experiment on NCI-H460 lung, 24.1 µM. Moreover, the TGI with NCI/ADR-RES ovarian is greater than 100 µM; in the experiment on OVCAR-5 ovarian, 20.5 µM; with RPMI-8226 leukemia it was 28.1 µM; in the experiment with SF-539 CNS it was 25.5 µM; in the experiment on SN12C renal it was 31.6 µM; with T-47D breast, 30.4 µM.
With `Cc1ccc2c(=O)c(-c3nnsn3)c[nH]c2n1`, the TGI in the experiment with 786-0 renal, in the experiment with A498 renal, in the experiment with A549 NSCLC, in the experiment with COLO 205 colon, in the experiment with HCT-116 colon and with HOP-62 NSCLC was greater than 100 µM in each case. For the same molecule, the TGI in the experiment on HS 578T breast, with HT29 colon, with MALME-3M melanoma, with MDA-MB-231 breast, with MDA-MB-435 and in the experiment with NCI-H460 lung was greater than 100 µM throughout. Besides, the TGI with NCI-H522 lung, in the experiment on NCI/ADR-RES ovarian, in the experiment on OVCAR-3 ovarian, in the experiment with OVCAR-5 ovarian, in the experiment with RPMI-8226 leukemia and with SN12C renal was greater than 100 µM throughout. In the experiment on T-47D breast, this molecule yielded a TGI greater than 100 µM.
For the molecule `Nc1nc(N)nc(-c2cnc3ccccc3c2)n1`, the TGI in the experiment with 786-0 renal, in the experiment with A498 renal, in the experiment with A549 NSCLC, in the experiment on COLO 205 colon, with HCT-116 colon and with HOP-62 NSCLC was greater than 100 µM each time. The TGI in the experiment on HS 578T breast, in the experiment on MALME-3M melanoma, with MDA-MB-231 breast, with MDA-MB-435, in the experiment on NCI-H460 lung and in the experiment on NCI-H522 lung was greater than 100 µM in each case. In addition, the TGI in the experiment on NCI/ADR-RES ovarian, in the experiment with OVCAR-3 ovarian, in the experiment with OVCAR-5 ovarian, in the experiment with SF-539 CNS, in the experiment on SN12C renal and in the experiment on T-47D breast was greater than 100 µM in each case.
As for `COc1cc(/C=C2/C[C@H]3[C@@H]4CCC5=CC(=O)CC[C@]5(C)[C@H]4CC[C@]3(C)NC2=O)cc(OC)c1OC`, the TGI in the experiment with 786-0 renal was greater than 100 µM; with A498 renal, 41.6 µM; with A549 NSCLC it was greater than 100 µM; in the experiment with COLO 205 colon, 44.4 µM; in the experiment on HCT-116 colon, greater than 100 µM; with HOP-62 NSCLC, greater than 100 µM. Moreover, the TGI in the experiment with HS 578T breast was 73.9 µM; in the experiment with HT29 colon, greater than 100 µM; in the experiment with MALME-3M melanoma, 72.2 µM; in the experiment with MDA-MB-231 breast it was 83.2 µM; in the experiment on MDA-MB-435, greater than 100 µM; in the experiment with NCI-H460 lung it was greater than 100 µM. Besides, the TGI in the experiment with NCI-H522 lung was 34 µM; in the experiment on NCI/ADR-RES ovarian, greater than 100 µM; with OVCAR-3 ovarian it was greater than 100 µM; in the experiment with OVCAR-5 ovarian it was 57.7 µM; with RPMI-8226 leukemia, greater than 100 µM; in the experiment on SN12C renal, greater than 100 µM. This molecule also had a TGI in the experiment with T-47D breast of 63 µM.
On to `NNC(=O)CC(=O)Nc1ccc(C(=O)O)cc1`, for which the TGI with 786-0 renal, in the experiment on A549 NSCLC, with COLO 205 colon, in the experiment with HCT-116 colon, in the experiment on HOP-62 NSCLC and in the experiment on HS 578T breast was greater than 100 µM each time. Also, the TGI in the experiment with HT29 colon, with MALME-3M melanoma, in the experiment on MDA-MB-231 breast, with MDA-MB-435, with NCI-H460 lung and in the experiment on NCI-H522 lung was greater than 100 µM each time. For the same molecule, the TGI with NCI/ADR-RES ovarian, in the experiment with OVCAR-3 ovarian, in the experiment with OVCAR-5 ovarian, in the experiment with RPMI-8226 leukemia, with SF-539 CNS and with SN12C renal was greater than 100 µM throughout. The molecule further showed a TGI with T-47D breast greater than 100 µM.
In the case of `COc1cc(/C=C2\N=C(c3ccccc3)N(c3nc4c(Cl)cc(Cl)cc4s3)C2=O)ccc1O`, the TGI with 786-0 renal is greater than 100 µM; in the experiment with A498 renal, 49 µM; in the experiment on A549 NSCLC it was greater than 100 µM; with COLO 205 colon, greater than 100 µM; with HCT-116 colon, 59.7 µM; in the experiment on HOP-62 NSCLC, greater than 100 µM. For the same molecule, the TGI was 57.2 µM with HS 578T breast; 78.5 µM in the experiment on HT29 colon; greater than 100 µM with MDA-MB-231 breast; greater than 100 µM with MDA-MB-435; greater than 100 µM in the experiment on NCI-H460 lung; greater than 100 µM with NCI/ADR-RES ovarian. Also, the TGI in the experiment on OVCAR-3 ovarian was 91.9 µM; in the experiment with OVCAR-5 ovarian, greater than 100 µM; with RPMI-8226 leukemia it was 47.4 µM; with SF-539 CNS it was greater than 100 µM; in the experiment with SN12C renal, 51.4 µM; in the experiment on T-47D breast, 72.6 µM.
For the molecule `Cc1cc(C)c2c(=O)n(CN3CCN(c4ccccc4)CC3)sc2n1`, the TGI in the experiment on 786-0 renal is 31.4 µM; with A498 renal, greater than 100 µM; in the experiment on A549 NSCLC it was greater than 100 µM; in the experiment with COLO 205 colon, 41.3 µM; in the experiment with HCT-116 colon it was 35.1 µM; with HOP-62 NSCLC, greater than 100 µM. Also, the TGI is greater than 100 µM with HS 578T breast; 34.6 µM in the experiment on HT29 colon; greater than 100 µM in the experiment with MALME-3M melanoma; 39.5 µM in the experiment with MDA-MB-231 breast; greater than 100 µM in the experiment on MDA-MB-435; greater than 100 µM with NCI-H460 lung. For the same molecule, the TGI came out at 32.5 µM in the experiment with NCI-H522 lung; 52.7 µM with NCI/ADR-RES ovarian; 99.6 µM with OVCAR-3 ovarian; 49.2 µM with OVCAR-5 ovarian; 37.5 µM in the experiment with SF-539 CNS; 87 µM in the experiment with SN12C renal. The TGI in the experiment with T-47D breast came to 33.8 µM.
